# Entries after “also recorded” stand apart in the source; their conditions may differ.
# Key:
# [1] = biological target: neuraminidase of avian influenza virus (H9N2) (Influenza A virus, UniProt A9LRT3); assay: biochemical; set-up: species or system avian influenza virus A/chicken/Korea/01310/2001(H9N2)
# neuraminidase = type: biochemical
# [2] = biological target: neuraminidase of novel influenza virus (Influenza A virus, UniProt C3W5S3); type: biochemical, novel influenza (H1N1) virus
# [3] = biological target: neuraminidase of swine influenza virus (H1N1) (Influenza A virus, UniProt Q20F35); type: biochemical, swine influenza virus A/Sw/Kor/CAN1/04 (H1N1)
# [4] = IC50 for neuraminidase of avian influenza virus (H9N2)
Compound,"IC50 [1, 4] [µM]",IC50 ([1]; IC50 of Tamiflu against neuraminidase of avian influenza virus in combination with compound 4) [µM],Type of inhibition from Lineweaver Burk plots (neuraminidase),"Inhibitory activity against neuraminidase of novel influenza virus, in words [2]",Inhibitory mechanism against neuraminidase of swine influenza virus [3]
"Cc1c(O)cc(O)c2c1OC(c1ccccc1)CC2=O (centres unmarked) [Compound 12, 8-methylpinocembrin]",> 555,,,,
"CCOC(=O)C1=C[C@@H](OC(CC)CC)[C@H](NC(C)=O)[C@@H](N)C1 [Tamiflu, oseltamivir phosphate, reference compound]",0.0136,0.00147,,,
"COc1cc(O)c(C)c(O)c1C(=O)/C=C/c1ccccc1 [Compound 8, 2′,4′-dihydroxy-3′-methyl-6′-methoxychalcone]",,,non-competitive inhibitor,excellent inhibitory activity,
"COc1c(C)c(O)c(C)c(O)c1C(=O)/C=C/c1ccccc1O [Compound 14, 2,2′,4′-trihydroxy-6′-methoxy-3′,5′-dimethylchalcone]",,,non-competitive inhibitor,excellent inhibitory activity,
"COc1cc(O)c(C)c2c1C(=O)CC(c1ccccc1)O2 (centres unmarked) [Compound 11, 7-hydroxy-5-methoxy-8-methylflavanone]",> 528,,,,
"COc1c(C)c(O)c2c(c1C)OC(c1ccccc1)CC2=O (centres unmarked) [Compound 6, 5-hydroxy-7-methoxy-6,8-dimethylflavanone]",> 503,,,,
"COc1c(C)c(O)c(C)c(O)c1C(=O)/C=C/c1ccc(O)cc1 [Compound 4, 4,2′,4′-trihydroxy-6′-methoxy-3′,5′-dimethylchalcone]",,,non-competitive inhibitor,excellent inhibitory activity,non-competitive inhibitor that reversibly inhibits; also recorded: noncompetitive inhibitor
"COc1c(C)c(O)c(C)c(O)c1C(=O)/C=C/c1ccccc1 [Compound 5, 2′,4′-dihydroxy-6′-methoxy-3′,5′-dimethylchalcone]",,,non-competitive inhibitor,excellent inhibitory activity,

# From US20120046353A1 (priority 2010, published 2012)
